Where two headings read alike, the source gives them in different places.
Legend:
[1] = biological target: T1, PAF-binding, dog platelets (Canis lupus familiaris, UniProt A0A8I3NSH0); assay: PAF binding assay (radiolabelled H-PAF, washed dog platelets); conditions: 10 minutes at room temperature, read-out: PAF-binding IC-50
T1 construct: dog platelets; from tissue; host or cells: washed platelets from citrated dog blood
T1 sequence (A0A8I3NSH0 1-343): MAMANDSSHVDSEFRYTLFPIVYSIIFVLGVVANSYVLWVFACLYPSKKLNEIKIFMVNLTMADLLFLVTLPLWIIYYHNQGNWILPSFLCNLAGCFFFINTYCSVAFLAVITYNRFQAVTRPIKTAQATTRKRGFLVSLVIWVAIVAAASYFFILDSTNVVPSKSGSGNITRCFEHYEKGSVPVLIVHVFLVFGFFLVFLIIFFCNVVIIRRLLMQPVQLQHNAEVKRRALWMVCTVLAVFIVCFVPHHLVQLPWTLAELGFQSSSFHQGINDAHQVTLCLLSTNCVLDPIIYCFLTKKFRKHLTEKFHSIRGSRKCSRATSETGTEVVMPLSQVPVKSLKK
Description: The binding assay was done in […] polyethylene microcentrifuge tubes (Beckman) containing 50 μl of an oil mixture of 2 parts Siliconol AR200 (Serva): 1 part Silicone Fluid (Arthur H. Thoma). Buffer, standards, or analogs (150 μl total volume) were added to the tubes. Radiolabelled H-PAF (50 μl) was then added to the tubes. The reaction was started by the addition of 50 μl of dog platelets (2×10^7 platelets). The tubes were capped, inverted several times to mix, and incubated for 10 minutes at room temperature. The platelets were separated from the incubation mixture by centrifuging 1 minute in a Beckman Microfuge B centrifuge. The tip of the microfuge tube was cut off, and the platelets were washed out of the tip with 200 μl of 50% methanol (Burdick and Jackson). Aquasol (NEN, 10 ml) was added and the radioactivity in the samples was determined using an LS 8100 Beckman liquid scintillation counter linked to a Techtran tape recorder Data was processed through an in-house computer system. Alternatively, radioactivity was determined using a Searle Mark III liquid scintillation counter linked to a Iso-Data microprocessor.
(b) preparation of platelets
Blood was collected from anesthesized or unanesthesized dogs into 50 ml plastic centrifuge tubes containing 3.8% sodium citrate as the anticoagulant (1 volume of citrate/9 volumes of blood). The red cells were removed by centrifugation for 15 minutes at 600 rpm (100-125 g) at room temperature. An aliquot of the supernatant platelet rich plasma (PRP) was saved for cell counting and the remainder was acidified to pH 6.5 with 0.15M citric acid. The platelet pellet was obtained after a 10 minute centrifugation at 2000 rpm (1000 g) at room temperature. Washed platelets were prepared by resuspending the platelet pellet once with pBS containing 1 mM EDTA, centrifuging as noted, and then resuspending the platelets in 0.1% BSA pBS. An aliquot of the washed platelets was counted. Platelets used for binding assays were diluted to 2×10^7 platelets/assay tube (4×10^8 platelets/ml). platelet countinq was done using a Royco Cell-Crit 921.

[2] = system: PAF Induced Bronchoconstriction; assay: PAF induced bronchoconstriction assay, oral testing; assay type: in vivo, guinea pig; conditions: Cavia porcellus, 2 hr; for inhibition in vivo at 3 mg/kg: Table II (*), 3 mg/kg p.o.; for ED50: p.o., read-out: Bronchoconstriction ID-50 p.o. 2 hr
[3] = system: PAF Induced Bronchoconstriction; assay: PAF induced bronchoconstriction assay, intravenous testing; assay type: in vivo, guinea pig; conditions: for ED50: Cavia porcellus, iv, 1 min, i.v., 1 minute pretreatment, PAF 1 μg/kg i.v., read-out: Bronchoconstriction ID-50 i.v.; for % inhibition of bronchoconstriction: Table II (*), at 0. mg/kg i.v. (dose digit cut off)
Description: Male animals (Hartlet Strain, 400-500 g were anesthetized with urethane (2 g/kg, i.p.). Each animals' trachea was cannulated and the guinea pigs were respirated using a Harvard small animal rodent respirator (3.0 cc stroke volume, 40 breaths per min.). Tracheal pressure was recorded from a cannula inserted in the trachea and connected to a Statham pressure transducer.
The jugular vein was cannulated for administering compounds. Spontaneous breathing was arrested with succinylcholine (1.2 mg/kg, i.v.) administered 2 minutes prior to intravenous injection of platelet activating factor PAF).
For the intravenous testing, the guinea pig is given a 1-minute pretreatment with propranolol at a dose of 0.1 mg/kg intravenously. The test compound is administered with a 1 minute pretreatment prior to intravenous challenge with PAF. The animal is then challenged with a 1 μg/kg intravenous dose of PAF and the change in tracheal pressure is measured.
The change in tracheal pressure is determined by subtracting the steady state baseline achieved after administration of succinylcholine from the peak broncho. constriction seen after challenge with PAF. The mean is calculated for each test compound and compared to the mean of the control animals to give the percent inhibition of bronchoconstriction. The standard error is calculated as the standard error of the mean.

[4] = Table II, triazolobenzodiazepines
[5] = Table II (**), at an oral dose of 0.3 mg/kg
[6] = Table I, triazolothienodiazepines
[7] = po, Table I, at a dose of 0.3 mg/kg p.o.

SMILES	IC50 [1, 4]	ED50 ([3]; Table I)	IC50 [1, 6]	also measured
Cc1nnc2n1-c1ccc(C#CCn3c(=O)oc4ccccc43)cc1C(c1ccccc1Cl)=NC2	20 nM	–	–	inhibition in vivo at 3 mg/kg ([2]; po): 91%
Cc1nnc2n1-c1ccc(C#CCOc3ccccc3)cc1C(c1ccccc1Cl)=NC2	< 10 nM	–	–	inhibition in vivo at 0.3 mg/kg [2, 5]: 37%
Cc1nnc2n1-c1ccc(C#CCN3C(=O)c4ccccc4C3=O)cc1C(c1ccccc1Cl)=NC2	20 nM	–	–	ED50 ([3]; Table II): 0.019 mg/kg; ED50 ([2]; po, Table II): 1.4 mg/kg
Cc1nnc2n1-c1ccc(C#CCn3c(=O)c4c(ncn4C)n(C)c3=O)cc1C(c1ccccc1F)=NC2	–	–	–	ED50 ([2]; po, Table II): > 0.3 mg/kg
Cc1nnc2n1-c1ccc(C#CCN3C(=O)C4CC=CCC4C3=O)cc1C(c1ccccc1F)=NC2 (centres unmarked)	50 nM	–	–	inhibition in vivo at 3 mg/kg ([2]; po): 99%
Cc1nnc2n1-c1sc(C#CCn3c(=O)c4ccccc4c(=O)c4ccccc43)cc1C(c1ccccc1Cl)=NC2	–	0.008 mg/kg	–	ED50 ([2]; po, Table I): 0.026 mg/kg
O=C1c2ccccc2C(=O)N1CC#Cc1ccc2c(c1)C(c1ccccc1F)=NCc1nnc(C(F)(F)F)n1-2	–	–	–	ED50 ([3]; Table II): 0.44 mg/kg; ED50 ([2]; po, Table II): 0.3 mg/kg
Cc1nnc2n1-c1sc(C#CCn3ncc4ccccc43)cc1C(c1ccccc1Cl)=NC2	–	0.002 mg/kg	1 nM	ED50 ([2]; po, Table I): 0.015 mg/kg
Cc1nnc2n1-c1sc(C#CCn3c4ccccc4c(=O)c4ccccc43)cc1C(c1ccccc1Cl)=NC2	–	0.01 mg/kg	–	–
Cc1nnc2n1-c1sc(C#CCn3c4c(c5ccccc53)CCCC4)cc1C(c1ccccc1Cl)=NC2	–	0.005 mg/kg	7 nM	ED50 ([2]; po, Table I): 0.006 mg/kg
Cc1nnc2n1-c1sc(C#Cc3ccccn3)cc1C(c1ccccc1Cl)=NC2	–	0.056 mg/kg	250 nM	inhibition in vivo at 0.3 mg/kg [2, 7]: 5%
Cc1nnc2n1-c1sc(C#CCN3Cc4cccc5cccc(c45)C3=O)cc1C(c1ccccc1Cl)=NC2	–	0.01 mg/kg	3.5 nM	ED50 ([2]; po, Table I): 0.009 mg/kg
Cc1nnc2n1-c1ccc(C#CCn3cnc4ccccc4c3=O)cc1C(c1ccccc1F)=NC2	70 nM	–	–	–
Cc1c(C)c2c(c(C)c1O)CCC(C)(C#Cc1cc3c(s1)-n1c(C)nnc1CN=C3c1ccccc1Cl)O2 (centres unmarked)	–	0.027 mg/kg	45 nM	–
Cc1nnc2n1-c1ccc(C#CCn3ccc4ccccc43)cc1C(c1ccccc1F)=NC2	–	–	–	ED50 ([2]; po, Table II): > 0.3 mg/kg
Cc1nnc2n1-c1sc(C#CCOc3ccccc3)cc1C(c1ccccc1Cl)=NC2	–	0.006 mg/kg	–	inhibition in vivo at 0.3 mg/kg [2, 7]: 67%
Cc1nnc2n1-c1sc(C#CCn3c(=O)n(-c4ccccc4)c4ccccc43)cc1C(c1ccccc1Cl)=NC2	–	0.008 mg/kg	< 1 nM	ED50 ([2]; po, Table I): 0.015 mg/kg
Cc1nnc2n1-c1sc(C#CCC34CCCc5cccc(c53)NC4=O)cc1C(c1ccccc1Cl)=NC2 (centres unmarked)	–	0.008 mg/kg	0.7 nM	inhibition in vivo at 0.3 mg/kg [2, 7]: 24%
Cc1nnc2n1-c1ccc(C#CCN3C(=O)COc4ccccc43)cc1C(c1ccccc1F)=NC2	–	–	–	% inhibition of bronchoconstriction [3]: 100%; inhibition in vivo at 3 mg/kg ([2]; po): 98%
Cc1nnc2n1-c1sc(C#CCN3CCc4ccccc4C3=O)cc1C(c1ccccc1Cl)=NC2	–	0.008 mg/kg	–	ED50 ([2]; po, Table I): 0.016 mg/kg
Cc1nnc2n1-c1sc(C#CCn3c(=O)c4ccccc4c4ccccc43)cc1C(c1ccccc1Cl)=[N+]([O-])C2	–	0.017 mg/kg	15 nM	–
Cc1nnc2n1-c1sc(C#C[Si](C)(C)C)cc1C(c1ccccc1Cl)=NC2	–	0.28 mg/kg	20 nM	–
Cc1nnc2n1-c1ccc(C#CCn3cnc4ccccc43)cc1C(c1ccccc1Cl)=NC2	15 nM	–	–	–

SMILES	IC50 [1, 4]	ED50 ([3]; Table I)	IC50 [1, 6]	also measured
Cc1nnc2n1-c1sc(C#CCN3C(=O)Cc4ccccc43)cc1C(c1ccccc1Cl)=NC2	–	–	3 nM	ED50 ([2]; po, Table I): 0.05 mg/kg
Cc1nnc2n1-c1sc(C#CCn3c(=O)c4cc(Cl)ccc4c4ccc(Cl)cc43)cc1C(c1ccccc1Cl)=NC2	–	0.008 mg/kg	–	–
Cc1nnc2n1-c1ccc(C#CCOc3cccnc3)cc1C(c1ccccc1Cl)=NC2	130 nM	–	–	ED50 ([3]; Table II): 0.005 mg/kg
Cc1nnc2n1-c1ccc(C#CCN3C(=O)C4CCCN4C3=O)cc1C(c1ccccc1F)=NC2 (centres unmarked)	200 nM	–	–	inhibition in vivo at 3 mg/kg ([2]; po): 99%
Cc1nnc2n1-c1ccc(C#CCn3ncc4ccccc43)cc1C(c1ccccc1F)=NC2	< 10 nM	–	–	–
Cc1nnc2n1-c1ccc(C#CCN3C(=O)C(=O)c4ccccc43)cc1C(c1ccccc1Cl)=NC2	350 nM	–	–	% inhibition of bronchoconstriction [3]: 100%
Cc1nnc2n1-c1ccc(C#CCn3nc4ccccn4c3=O)cc1C(c1ccccc1F)=NC2	350 nM	–	–	inhibition in vivo at 3 mg/kg ([2]; po): 43%
Cc1nnc2n1-c1ccc(C#CCN3C(=O)c4cccc5cccc(c45)C3=O)cc1C(c1ccccc1Cl)=NC2	–	–	–	inhibition in vivo at 3 mg/kg ([2]; po): 99%
Cc1nnc2n1-c1ccc(C#CCN3C(=O)CN(C)C(=O)c4ccccc43)cc1C(c1ccccc1F)=NC2	160 nM	–	–	–
Cc1nnc2n1-c1ccc(C#CCn3c(C)nc4ccccc4c3=O)cc1C(c1ccccc1F)=NC2	50 nM	–	–	–
Cc1nnc2n1-c1sc(C#CCn3c(=O)c4ccccc4c4ccccc43)cc1C(c1ccccc1Cl)=NC2O (centres unmarked)	–	0.022 mg/kg	25 nM	–
Cc1nnc2n1-c1ccc(C#CCN3C(=O)CSc4ccccc43)cc1C(c1ccccc1F)=NC2	–	–	–	% inhibition of bronchoconstriction [3]: 99%; inhibition in vivo at 3 mg/kg ([2]; po): 99%
Cc1nnc2n1-c1ccc(C#CCN3C(=O)Cc4ccccc43)cc1C(c1ccccc1F)=NC2	< 10 nM	–	–	inhibition in vivo at 0.3 mg/kg [2, 5]: 32%
Cc1nnc2n1-c1ccc(C#CCN3C(=O)Cc4ccccc43)cc1C(c1ccccc1Cl)=NC2	< 10 nM	–	–	–
Cc1nnc2n1-c1ccc(C#CCN3C(=O)CCc4ccccc43)cc1C(c1ccccc1F)=N[C@H]2C	6 nM	–	–	ED50 ([3]; Table II): 0.008 mg/kg
Cc1nnc2n1-c1ccc(C#CCCN3C(=O)c4ccccc4C3=O)cc1C(c1ccccc1F)=NC2	–	–	–	inhibition in vivo at 0.3 mg/kg [2, 5]: 54%
Cc1nnc2n1-c1sc(C#Cc3ccccc3)cc1C(c1ccccc1Cl)=NC2	–	> 0.1 mg/kg	100 nM	–
Cc1nnc2n1-c1sc(C#CCn3nc4ccccn4c3=O)cc1C(c1ccccc1Cl)=NC2	–	–	11 nM	inhibition in vivo at 0.3 mg/kg [2, 7]: 79%
Cc1nnc2n1-c1sc(C#CCN3C(=O)COc4cc(F)ccc43)cc1C(c1ccccc1Cl)=NC2	–	0.005 mg/kg	–	ED50 ([2]; po, Table I): 0.016 mg/kg
Cc1nnc2n1-c1sc(C#CCN3C(=O)c4ccccc4S3(=O)=O)cc1C(c1ccccc1Cl)=NC2	–	–	4 nM	inhibition in vivo at 0.3 mg/kg [2, 7]: 27%
Cc1nnc2n1-c1sc(C#CCn3cnc4ccccc43)cc1C(c1ccccc1Cl)=NC2	–	–	4.5 nM	ED50 ([2]; po, Table I): 0.12 mg/kg
Cc1nnc2n1-c1ccc(C#CCN3Cc4ccccc4C3=O)cc1C(c1ccccc1F)=NC2	225 nM	–	–	inhibition in vivo at 3 mg/kg ([2]; po): 100%
Cc1nnc2n1-c1ccc(C#CCN3C(=O)c4ccccc4S3(=O)=O)cc1C(c1ccccc1F)=NC2	150 nM	–	–	–
